Measured values reported in patent US4283398A, “Cephalosporins” (Mitsui Toatsu Chemicals, Inc., priority 1978, dated 1981).
Read-outs that look alike come from different tables or passages of the source.

Key:
Test in all cases: minimum growth inhibitory concentration (MIC) method
Type in all cases: cell-based
[1] = system: Klebsiella pneumoniae (Horino); details: K. pneumoniae Horino, HIA medium, 37° C., 18 hours, sodium salts
Procedure: (§1) The antibacterial activities of the cephalosporins of this invention were measured using the sodium salts of the compounds obtained in Synthesis Examples 1 and 2. The procedure and the results are shown in Referential Example 1.
(§2) Carbenicillin sodium salt (CB-PC) and cephazoline sodium salt (CEZ) were used as controls.
(§3) The antibacterial activities of the test compounds against various Gram-positive and Gram-negative bacteria were determined in a customary manner by the minimum growth inhibitory concentration method (MIC method).
(§4) A commercially available heart infusion agar medium (to be abbreviated HIA medium) was used as an assay medium, and a commercially available trypto-soy bouillon medium (to be abbreviated TSB) was used as a medium for the growth of test bacterial strains.
(§5) The test compound was diluted with the melted HIA medium to 100 μg/ml as a maximum concentration, and then serially diluted double. The dilutions were poured into sterilized Petri dishes respectively and allowed to cool and solidify to prepare plates containing the test compound.
(§6) The test bacterial strain was cultivated at 37° C. for 18 to 24 hours in the TSB medium. The culture broth was diluted to 50 to 500 times with a freshly prepared TSB culture medium, and one platinum loopful of the dilution was inoculated in each of the plates containing the test compound. The plate was incubated at 37° C. for 18 hours, and the state of growth of the strain on the plate was observed, and the minimum growth inhibitory concentration (MIC) of the test compound was determined.

Escherichia coli (K-12) = details: E. coli K-12, HIA medium, 37° C., 18 hours, sodium salts
Procedure: as §1, §2, §3, §4, §5, §6

[2] = system: Staphylococcus aureus (Y-8); details: S. aureus Y-8, HIA medium, 37° C., 18 hours, sodium salts
Procedure: as §1, §2, §3, §4, §5, §6

Escherichia coli (26R03) = details: E. coli 26R03, HIA medium, 37° C., 18 hours, sodium salts
Procedure: as §1, §2, §3, §4, §5, §6

[3] = system: Pseudomonas aeruginosa (NCTC 7244); details: NCTC7244, P. aeruginosa NCTC 7244, HIA medium, 37° C., 18 hours, sodium salts
Procedure: as §1, §2, §3, §4, §5, §6

[4] = system: Staphylococcus aureus (FDA 209P); details: FDA209P, read-out: Minimum growth inhibitory concentration
Procedure: as §1, §2, §3, §4, §5, §6

Proteus morganii (C-39) = details: Morganella morganii, HIA medium, 37° C., 18 hours, sodium salts
Procedure: as §1, §2, §3, §4, §5, §6

[5] = system: Escherichia coli (14H114); details: E. coli 14H114, HIA medium, 37° C., 18 hours, sodium salts
Procedure: as §1, §2, §3, §4, §5, §6

[6] = system: Pseudomonas aeruginosa (IFO-3901); details: IFO3901, P. aeruginosa IFO-3901, HIA medium, 37° C., 18 hours, sodium salts
Procedure: as §1, §2, §3, §4, §5, §6

[7] = system: Pseudomonas Maltophilia (F-6257); details: Stenotrophomonas maltophilia, HIA medium, 37° C., 18 hours, sodium salts
Procedure: as §1, §2, §3, §4, §5, §6

[8] = system: Enterobacter aerogenes (IFO 3320); details: Klebsiella aerogenes, read-out: Minimum growth inhibitory concentration
Procedure: as §1, §2, §3, §4, §5, §6

[9] = system: Pseudomonas aeruginosa (S-1); details: P. aeruginosa S-1, HIA medium, 37° C., 18 hours, sodium salts
Procedure: as §1, §2, §3, §4, §5, §6

Escherichia coli (NIHJ) = details: E. coli NIHJ, HIA medium, 37° C., 18 hours, sodium salts
Procedure: as §1, §2, §3, §4, §5, §6

[10] = system: Enterobacter cloacae (D-49); details: HIA medium, 37° C., 18 hours, sodium salts
Procedure: as §1, §2, §3, §4, §5, §6

[11] = system: Bacillus cereus (IAM 1792); details: IAM1792, HIA medium, 37° C., 18 hours, sodium salts
Procedure: as §1, §2, §3, §4, §5, §6

[12] = system: Streptococcus faecalis (Hoshi); details: Enterococcus faecalis, HIA medium, 37° C., 18 hours, sodium salts
Procedure: as §1, §2, §3, §4, §5, §6

[13] = system: Pseudomonas aeruginosa (F1629); details: P. aeruginosa F1629, HIA medium, 37° C., 18 hours, sodium salts
Procedure: as §1, §2, §3, §4, §5, §6

[14] = system: Serratia marcescens (S-33); details: HIA medium, 37° C., 18 hours, sodium salts
Procedure: as §1, §2, §3, §4, §5, §6

[15] = system: Klebsiella pneumoniae (B-172); details: K. pneumoniae B-172, HIA medium, 37° C., 18 hours, sodium salts
Procedure: as §1, §2, §3, §4, §5, §6

[16] = system: Klebsiella pneumoniae (ATCC 10031); details: read-out: Minimum growth inhibitory concentration
Procedure: as §1, §2, §3, §4, §5, §6

[17] = system: Pseudomonas aeruginosa (718); details: P. aeruginosa 718, HIA medium, 37° C., 18 hours, sodium salts
Procedure: as §1, §2, §3, §4, §5, §6

[18] = system: Citrobacter freundii (F-34); details: HIA medium, 37° C., 18 hours, sodium salts
Procedure: as §1, §2, §3, §4, §5, §6

Shigella flexneri (K-A) = details: HIA medium, 37° C., 18 hours, sodium salts
Procedure: as §1, §2, §3, §4, §5, §6

Proteus rettgeri (T-2) = details: Providencia rettgeri, HIA medium, 37° C., 18 hours, sodium salts
Procedure: as §1, §2, §3, §4, §5, §6

[19] = system: Pseudomonas aeruginosa (ATCC 10145); details: ATCC10145, P. aeruginosa ATCC 10145, HIA medium, 37° C., 18 hours, sodium salts
Procedure: as §1, §2, §3, §4, §5, §6

[20] = system: Pseudomonas aeruginosa (395); details: P. aeruginosa 395, HIA medium, 37° C., 18 hours, sodium salts
Procedure: as §1, §2, §3, §4, §5, §6

Proteus vulgaris (OX-19) = details: read-out: Minimum growth inhibitory concentration
Procedure: as §1, §2, §3, §4, §5, §6

[21] = S. aureus FDA 209P, HIA medium, 37° C., 18 hours, sodium salts
[22] = IFO3320, Enterobacter aerogenes IFO 3320, HIA medium, 37° C., 18 hours, sodium salts
[23] = ATCC10031, K. pneumoniae ATCC 10031, HIA medium, 37° C., 18 hours, sodium salts
[24] = Proteus vulgaris OX-19, HIA medium, 37° C., 18 hours, sodium salts

## Cn1nnnc1SCC1=C(C(=O)O)N2C(=O)C(NC(=O)[C@H](NC(=O)c3cnc4c(c3O)C(=O)CCC4)c3ccccc3)C2SC1 (single isomer, unassigned) [Synthesis Example 1, 7-[D-(-)-α-(4-hydroxy-5-oxo-5,6,7,8-tetrahydroquinoline-3-carboxamide)phenylacetamido)-3-[[(1-methyl-1H-tetrazol-5-yl)thio]methyl]-Δ^3-cephem-4-carboxylic acid]
[1]
  MIC: 1.56 µg/mL
Escherichia coli (K-12)
  MIC: 0.78 µg/mL
[2]
  MIC: 3.13 µg/mL
Escherichia coli (26R03)
  MIC: 1.56 µg/mL
[3]
  MIC: 12.5 µg/mL
[4]; [21]
  MIC: 1.56 µg/mL
Proteus morganii (C-39)
  MIC: 3.13 µg/mL
[5]
  MIC: 6.25 µg/mL
[6]
  MIC: 12.5 µg/mL
[7]
  MIC: 3.13 µg/mL
[8]; [22]
  MIC: 0.2 µg/mL
[9]
  MIC: 1.56 µg/mL
Escherichia coli (NIHJ)
  MIC: 0.78 µg/mL
[10]
  MIC: 6.25 µg/mL
[11]
  MIC: 25 µg/mL
[12]
  MIC: 25 µg/mL
[13]
  MIC: 6.25 µg/mL
[14]
  MIC: 3.13 µg/mL
[15]
  MIC: 0.78 µg/mL
[16]; [23]
  MIC: 0.2 µg/mL
[17]
  MIC: 12.5 µg/mL
[18]
  MIC: 0.78 µg/mL
Shigella flexneri (K-A)
  MIC: 0.2 µg/mL
Proteus rettgeri (T-2)
  MIC: 1.56 µg/mL
[19]
  MIC: 12.5 µg/mL
[20]
  MIC: 3.13 µg/mL
Proteus vulgaris (OX-19); [24]
  MIC: 1.56 µg/mL

## Cn1nnnc1SCC1=C(C(=O)O)N2C(=O)C(NC(=O)[C@H](NC(=O)c3cnc4c(c3O)C(=O)CCC4)c3ccc(O)cc3)C2SC1 (single isomer, unassigned) [Synthesis Example 2, 7-[D-(-)-α-(4-hydroxy-5-oxo-5,6,7,8-tetrahydroquinoline-3-carboxamide)-α-(4-hydroxyphenyl)acetamido]-3-[[(1-methyl-1H-tetrazol-5-yl)thio]methyl]-Δ^3-cephem-4-carboxylic acid]
[1]
  MIC: 0.78 µg/mL
Escherichia coli (K-12)
  MIC: 0.39 µg/mL
[2]
  MIC: 3.13 µg/mL
Escherichia coli (26R03)
  MIC: 0.78 µg/mL
[3]
  MIC: 6.25 µg/mL
[4]; [21]
  MIC: 1.56 µg/mL
Proteus morganii (C-39)
  MIC: 3.13 µg/mL
[5]
  MIC: 6.25 µg/mL
[6]
  MIC: 12.5 µg/mL
[7]
  MIC: 6.25 µg/mL
[8]; [22]
  MIC: 0.2 µg/mL
[9]
  MIC: 1.56 µg/mL
Escherichia coli (NIHJ)
  MIC: 0.78 µg/mL
[10]
  MIC: 3.13 µg/mL
[11]
  MIC: 12.5 µg/mL
[12]
  MIC: 25 µg/mL
[13]
  MIC: 3.13 µg/mL
[14]
  MIC: 3.13 µg/mL
[15]
  MIC: 0.78 µg/mL
[16]; [23]
  MIC: 0.39 µg/mL
[17]
  MIC: 12.5 µg/mL
[18]
  MIC: 0.39 µg/mL
Shigella flexneri (K-A)
  MIC: 0.1 µg/mL
Proteus rettgeri (T-2)
  MIC: 1.56 µg/mL
[19]
  MIC: 12.5 µg/mL
[20]
  MIC: 1.56 µg/mL
Proteus vulgaris (OX-19); [24]
  MIC: 0.78 µg/mL

## CC1(C)S[C@@H]2[C@H](NC(=O)C(C(=O)O)c3ccccc3)C(=O)N2[C@H]1C(=O)O (stereo partly drawn) [CB-PC, disodium-α-carboxybenzyl penicillin, reference compound]
[1]
  MIC: 100 µg/mL
Escherichia coli (K-12)
  MIC: 6.25 µg/mL
[2]
  MIC: 12.5 µg/mL
Escherichia coli (26R03)
  MIC: 3.13 µg/mL
[3]
  MIC: 100 µg/mL
[4]; 18 h
  MIC: 1.56 µg/mL
Proteus morganii (C-39)
  MIC: 6.25 µg/mL
[5]
  MIC: > 100 µg/mL
[6]
  MIC: 100 µg/mL
[7]
  MIC: 25 µg/mL
[8]; IFO3320, 18 h
  MIC: 1.56 µg/mL
[9]
  MIC: 25 µg/mL
Escherichia coli (NIHJ)
  MIC: 6.25 µg/mL
[10]
  MIC: > 100 µg/mL
[11]
  MIC: 100 µg/mL
[12]
  MIC: 50 µg/mL
[13]
  MIC: > 100 µg/mL
[14]
  MIC: 6.25 µg/mL
[15]
  MIC: 25 µg/mL
[16]; [23]
  MIC: > 100 µg/mL
[17]
  MIC: > 100 µg/mL
[18]
  MIC: 3.13 µg/mL
Shigella flexneri (K-A)
  MIC: 1.56 µg/mL
Proteus rettgeri (T-2)
  MIC: 3.13 µg/mL
[19]
  MIC: > 100 µg/mL
[20]
  MIC: 25 µg/mL
Proteus vulgaris (OX-19); [24]
  MIC: 6.25 µg/mL

## Cc1nnc(SCC2=C(C(=O)O)N3C(=O)[C@@H](NC(=O)Cn4cnnn4)[C@H]3SC2)s1 [CEZ, sodium 7-[1-(1H)-tetrazoylacetamido]-3-[2-(5-methyl-1,3,4-thiadiazoyl)-thiomethyl]-Δ^3, cephem-4-carboxylate, reference compound]
[1]
  MIC: 3.13 µg/mL
Escherichia coli (K-12)
  MIC: 3.13 µg/mL
[2]
  MIC: 0.78 µg/mL
Escherichia coli (26R03)
  MIC: 50 µg/mL
[3]
  MIC: > 100 µg/mL
[4]; [21]
  MIC: 0.2 µg/mL
Proteus morganii (C-39)
  MIC: > 100 µg/mL
[5]
  MIC: 6.25 µg/mL
[6]
  MIC: > 100 µg/mL
[7]
  MIC: > 100 µg/mL
[8]; [22]
  MIC: 3.13 µg/mL
[9]
  MIC: > 100 µg/mL
Escherichia coli (NIHJ)
  MIC: 3.13 µg/mL
[10]
  MIC: > 100 µg/mL
[11]
  MIC: 100 µg/mL
[12]
  MIC: 25 µg/mL
[13]
  MIC: > 100 µg/mL
[14]
  MIC: > 100 µg/mL
[15]
  MIC: 3.13 µg/mL
[16]; ATCC10031, 18 h
  MIC: 1.56 µg/mL
[17]
  MIC: > 100 µg/mL
[18]
  MIC: 50 µg/mL
Shigella flexneri (K-A)
  MIC: 1.56 µg/mL
Proteus rettgeri (T-2)
  MIC: 12.5 µg/mL
[19]
  MIC: > 100 µg/mL
[20]
  MIC: > 100 µg/mL
Proteus vulgaris (OX-19); Proteus vulgaris, 18 h
  MIC: 1.56 µg/mL
